Earlier results on two compounds are cited in patent US20240027453A1, “METHOD FOR DETECTION AND QUANTITATIVE MONITORING OF INFECTIONS WITH HERPESVIRUSES” (The Trustees of Princeton University, priority 2020, published 2024).

The term IC50 denotes the concentration needed to halve the response being measured.

For series [1], the system named is HCMV. The settings on record: cited from earlier work.
Series [2] relates to HCMV. The following applies: in MRC5 cells; cited from earlier work.

For the compound `Nc1c(S(=O)(=O)c2ccccc2)c2nc3ccccc3nc2n1-c1ccc(F)cc1` [CAY10602], the “decrease in HCMV titers” value in the series on HCMV [1] ([…] CAY10602, 50 μM trans-Resveratrol) is on record as around 50%. Besides, in the series with HCMV [1], the HCMV titers entry is reported as “decreased”.

Turning to `Nc1ccn(C[C@@H](CO)OCP(=O)(O)O)c(=O)n1` [CDV, cidofovir], the IC50 in the series on HCMV [2] was around 500 nM.
